This is an account of results in patent publication US20130096099A1, “METHOD OF TREATING BRAIN CANCER” (NIIKI PHARMA INC., priority 2010, published 2013).

In one assay the test system is U87 cell line. The following applies: Bowles et al., J. Neurosurg., 73:248-253 (1990); cited from earlier work.
Assay [1] has as its system glioma cell line U87. The assay can be described thus: MTT assay in 3-dimentional tumor model (HuBiogel) derived from glioma cell line U87. The format is cell-based. The procedure: (§1) The compound sodium trans-[tetrachlorobis(1H-indazole)ruthenate(III)] was tested in a 3-dimentional tumor model derived from glioma cell line U87. Specifically, cells were trypsinized, washed, counted by trypan blue exclusion. Tumor beads were then prepared by mixing 20,000 cells/10 μl of HuBiogel (4 mg/mL) (See U.S. patent application Ser. No. 10/546,506, which is incorporated herein by reference). The 3-D tumor beads were cultivated for 72 hours in multi-well plates with complete media (10% FBS) in a 37° C. incubator +5% CO2. Mini-tumors were treated with various concentrations of the test compound sodium trans-[tetrachlorobis(1H-indazole)ruthenate(III)] in media (final 0.2-0.3% DMSO) or control (DMSO). Repeated drug treatment was done by removing the culture media and replacing with fresh media with drug compound or DMSO. On Day 3, MTT assay and live-cell staining with Calcein AM were performed (5 beads/assay set).
(§2) Statistical analysis of data sets (Average, T-test, GI-50) was performed using MS-Excel program. […] See e.g., Bowles et al., J. Neurosurg., 73:248-253 (1990).
(In general: Formazan colour is commonly taken as a measure of viable cells.)

Assay [2] deals with glioma cell line U87. Put plainly: Live-cell staining with Calcein AM / image analysis in 3-D HuBiogel tumor beads. The note with it: 3-D HuBiogel tumor beads from U87, Calcein AM, Day 3. The format is cell-based. The procedure:
as §1, §2

Entries after “also recorded” stand apart in the source; their conditions may differ.

For `O=NN(CCCl)C(=O)NCCCl` [BCNU, bis-chloronitrosourea], the “resistance of U87 cell line to drug” value in the assay on U87 cell line is reported as “relatively resistant”.

Regarding `[Cl][Ru-]([Cl])([Cl])[Cl].[Na+].c1ccc2[nH]ncc2c1.c1ccc2[nH]ncc2c1` [sodium trans-[tetrachlorobis(1H-indazole)ruthenate(III)]], the “tumor proliferation activity / growth inhibition (MTT assay)” value with glioma cell line U87 [1] (3-D HuBiogel tumor beads from U87, Day 3, FIG. 1) is “dose-dependent growth inhibition; also recorded: significantly inhibited tumor proliferation activity”. Further, the GI50 in the assay on glioma cell line U87 [1] (3-D HuBiogel tumor beads from U87, MTT assay on Day 3, read-out: average GI-50 (the drug concentration required for growth inhibition at 50%)) is 95 µM. The “tumor killing in live-cell staining/image analysis” value with glioma cell line U87 [2] is on record as “dose-dependent tumor killing effective”.
